# Entries after “also recorded” stand apart in the source; their conditions may differ. Like-named read-outs stand apart in the source and are kept apart here.
# Key:
# [1] = test system: isolated mouse airway smooth muscle cells; assay: Measurement of global [Ca2+]i (fluo-3) in freshly isolated mouse airway smooth muscle cells; type: cell-based; details: for effect on chloroquine-induced reversal of the KCl-induced increase in [Ca2+]i: PTX 1 μg/ml 6-8 hours, gallein 20 μM, Anti-βγ 1 μM, U73122, 2-ABP at concentrations of FIG. 5; for chloroquine-induced increase in global [Ca2+]i, % of control: resting cells, PTX 1 μg/ml 6-8 hr, gallein 20 μM 30 min, Anti-βγ 1 μM 1 hr, U73122 3 μM, 2-APB 50 μM; for effect on chloroquine's reduction of the Mch-induced [Ca2+]i increase: 10 μM FPL, single cell level
# Description: (§1) The tracheas and bronchi were dissected free from the surface of the connective tissue. The tissue was incubated in the dissociation medium containing papain 30 unit/ml, 1 mM DTT, and 0.5 mg/ml BSA, at 35° C. for 30 min, and then transferred to a dissociation medium containing 3 unit/ml collagenase F and 0.5 mg/mL BSA, and incubated at 35° C. for another 15 min to produce isolated ASM cells. Finally, the tissue was agitated with a fire polished wide-bore glass pipette to release the cells.
# Fluorescence images using fluo-3 as a calcium indicator were obtained using a custom-built wide-field digital imaging system. The camera was interfaced to a custom made inverted microscope, and the cells were imaged using either a 20× Nikon 1.3 NA for global [Ca^2+] measurement or a 60× Nikon 1.4 NA oil for Ca^2+ spark measurement. […] The images were acquired at the speed of either 1 Hz for global [Ca^2+] measurement or 50 Hz for Ca^2+ spark measurement. Subsequent image processing and analysis was performed off line using a custom-designed software package, running on a Linux/PC workstation. [Ca^2+]i was represented as ΔF/F0*100 with F calculated by integrating fluo-3 over entire cells for global [Ca^2+], or just the value at the brightest pixel (i.e., epicenter pixel) for Ca^2+ sparks.
# All chemicals, except fluo-3 (Invitrogen Co, San Diego, Calif., USA), gallein (Tocris Bioscience, Bristol, United Kingdom), and Anti-βγ blocking peptide (AnaSpec, Fremont, Calif., USA), were purchased from Sigma-Aldrich Co. (St. Louis, Mo., USA). For single cell studies, agonists and antagonists were applied locally to cells via a picospritzer at a constant pressure, so that the duration of its action and concentration could be controlled easily.
# [2] = test system: mouse airways (trachea and bronchi rings); assay: Mouse airway smooth muscle contraction bioassay (isometric tension); details: for reversal (relaxation) of KCl-induced tension: 60 mM KCl, chloroquine, denatonium 1 mM; for relaxation of smooth muscle from airways: mouse
# Description: C57/BL6 mice at 7-12 weeks of age were sacrificed and the entire respiratory trees were rapidly removed and immersed in Krebs physiologic solution containing (in mM) 118.07 NaCl, 4.69 KCl, 2.52 CaCl2, 1.16 MgSO4, 1.01 NaH2PO4, 25 NaHCO3, and 11.10 glucose. Trachea and bronchi were isolated and cut into rings (4 mm in length). The rings were mounted on a wire myograph chamber (Danish Myo Technology, Aarhus, Denmark), and a PowerLab recording device (AD Instruments) was used to record isometric tension. The ring preparations with zero tension were immersed in 5 ml of Krebs physiologic solution, bubbled with 95% 02 and 5% CO2 at 37° C. The basal tones were set at the level of approximately 2 mN.
# [3] = test system: human intrapulmonary bronchi; assay: Force measurement in human intrapulmonary airways; details: for reversal (relaxation) of KCl-induced tension: KCl (60 mM), chloroquine, denatonium 1 mM; for relaxation of smooth muscle from airways: human
# Description: Trachea and bronchi were isolated and cut into rings (4 mm in length). The rings were mounted on a wire myograph chamber (Danish Myo Technology, Aarhus, Denmark), and a PowerLab recording device (AD Instruments) was used to record isometric tension. […] Human lung tissue was obtained (with informed consent) from patients undergoing surgery (lobectomy) for lung cancer at the Department of Surgery and the Department of Pathology at the Univ. of Massachusetts Memorial Med Ctr (Worcester, Mass.). The tumors were identified as nonsmall cell carcinoma (adenocarcinoma, squamous cell carcinoma). Intrapulmonary airways were dissected out and cleaned free of the connective tissues. These airways were either cut into the rings ([…]) for force measurements the same as for mouse airway tissues, or digested with the same enzymes, dissociation medium and isolation procedure as for single mouse ASM cells. The experimental protocols on human tissues were approved by the Committee for Protection of Human Subjects in Research at the University of Massachusetts Medical School (Protocol 13590 to R.Z).
# human pulmonary arteries = assay: Relaxation of human pulmonary arteries pre-contracted by KCl; details: for relaxation of smooth muscle from pulmonary artery: human; for relaxation of human pulmonary arteries: pre-contracted by KCl
# Description: Human specimen were provided by Univ. Mass. Memorial Medical Center.
# [4] = test system: mouse internal anal sphincter; assay: Spontaneous tone of mouse internal anal sphincter; details: for relaxation of smooth muscle from internal anal sphincter: mouse
# Description: The spontaneous tone contributes about 70% of the basal tonus that maintains fecal continence in human and animals.
# mouse urethra = assay: Mouse urethral contraction induced by contractile agonists; details: for relaxation of smooth muscle from urethra: mouse
# Description: […] were pretreated with bitter tastants, and then stimulated with contractile agonists. Contractile agonists alone were used as the control.
# [5] = test system: pulmonary artery from mouse; assay: Relaxation of smooth muscle from mouse pulmonary artery
# Mouse ASM cells = assay: Measurement of cell shortening in mouse ASM cells; type: cell-based; details: Mch 100 μM; n=21
# Description: as §1, with “the cells. Myocytes were placed into a recording chamber superfused with the bath solution for patch clamp experiments at room temperature. Cells loaded with Fluo-3 were imaged using a custom-built wide-field digital imaging system and their lengths were determined using custom software to manually trace down the center of the cell.” for “the cells.”
# [6] = test system: isolated smooth muscle cells from mouse internal anal sphincter; assay: [Ca2+]i in isolated smooth muscle cells from mouse internal anal sphincter; type: cell-based; details: CDCA 100 μM; chloroquine 1 mM; denatonium 1 mM
# Description: Fluorescence images using fluo-3 as a calcium indicator were obtained using a custom-built wide-field digital imaging system. The camera was interfaced to a custom made inverted microscope, and the cells were imaged using either a 20× Nikon 1.3 NA for global [Ca^2+] measurement or a 60× Nikon 1.4 NA oil for Ca^2+ spark measurement. The 488 nm line of an Argon Ion laser provided fluorescence excitation, with a shutter to control exposure duration, and emission of the Ca^2+ indicator was monitored at wavelengths >500 nm. The images were acquired at the speed of either 1 Hz for global [Ca^2+] measurement or 50 Hz for Ca^2+ spark measurement. Subsequent image processing and analysis was performed off line using a custom-designed software package, running on a Linux/PC workstation. [Ca^2+]i was represented as ΔF/F0*100 with F calculated by integrating fluo-3 over entire cells for global [Ca^2+], or just the value at the brightest pixel (i.e., epicenter pixel) for Ca^2+ sparks.
# mouse airway strips = details: all at 1 mM; [Ca2+]i clamped; α-toxin permeabilized
# [7] = pretreatment, Chloro 1 mM, CDCA 100 μM
compound,measurement,setting,value
COc1ccc([C@@H]2Sc3ccccc3N(CCN(C)C)C(=O)[C@@H]2OC(C)=O)cc1 [diltiazem],KCl-induced increase in ΔF/F0 after diltiazem pretreatment,"[1]; 10 μM diltiazem pretreatment, KCl 60 mM, n=9",16.8±10%
same,effect on KCl (60 mM)-induced increase in [Ca2+]i,[1]; prior application of diltiazem 100 μM,blocked
same,reversal of the Mch-induced increase in [Ca2+],"[1]; single isolated mouse ASM cells, n=12",90.2±2.9%
same,reversal of the KCl-induced contraction,"[2]; KCl 60 mM, n=6",93.1±4.8%
same,reversal of Mch-induced airway force generation,[2]; mouse airways,dose-dependently reversed
same,reversal (relaxation) of KCl-induced tension,[2]; mouse airways,relaxed
same,reversal of Mch-induced airway force generation,"[3]; human airways, 10 μM Mch",dose-dependently reversed
same,reversal (relaxation) of KCl-induced tension,[3]; human airways,relaxed
COc1ccc2c(c1)CC[C@@H]1[C@@H]2CC[C@]2(C)[C@@H](NCCCCCCN3C(=O)C=CC3=O)CC[C@@H]12 [U73122],effect on chloroquine-induced reversal of the KCl-induced increase in [Ca2+]i,[1],failed to alter
same,"chloroquine-induced increase in global [Ca2+]i, % of control",[1],18.0±5.5%
"COC(=O)c1c(C)[nH]c(C)c1C(=O)c1ccccc1Cc1ccccc1 [FPL, FPL 64176]",effect on chloroquine's reduction of [Ca2+]i in cells stimulated by KCl,[1],prevented
same,effect on chloroquine's reduction of the Mch-induced [Ca2+]i increase,[1],prevent chloroquine from reducing
same,effect on chloroquine's reduction of the Mch-induced [Ca2+]i increase,[1]; listed as FPL 64176,prevented chloro from reversing
same,effect on chloroquine's reduction of [Ca2+]i in cells stimulated by KCl,[1]; listed as FPL 64176,inhibited
same,effect on chloroquine-induced relaxation in ASM pre-contracted by KCl,[2]; KCl 60 mM,dose-dependently reversed; also recorded: dose-dependently inhibited
same,effect on chloroquine-induced relaxation of Mch precontracted airways,[2]; tissue level,prevent chloroquine from relaxing; also recorded: dose-dependently reversed
O=C1OC2(c3ccccc31)c1ccc(O)c(O)c1Oc1c2ccc(O)c1O [gallein],effect on chloroquine-induced reversal of the KCl-induced increase in [Ca2+]i,[1],prevented
same,"chloroquine-induced increase in global [Ca2+]i, % of control",[1],19.9±8.5%
"NCCOB(c1ccccc1)c1ccccc1 [2-APB, 2-Aminoethoxydiphenyl borate]",effect on chloroquine-induced reversal of the KCl-induced increase in [Ca2+]i,[1],failed to alter
same,"chloroquine-induced increase in global [Ca2+]i, % of control",[1],−10.5±7.3%
"C[C@H](CCC(=O)O)[C@H]1CC[C@H]2[C@@H]3CC[C@@H]4C[C@H](O)CC[C@]4(C)[C@H]3C[C@H](O)[C@]12C [DCA, deoxycholic acid]",relaxation of smooth muscle from airways,[2],fully relax
same,relaxation of smooth muscle from airways,[3],fully relax
same,reversal (relaxation) of KCl-induced tension,[3]; human airways,fully relaxed
same,relaxation of smooth muscle from pulmonary artery,human pulmonary arteries,fully relax
same,relaxation of human pulmonary arteries,human pulmonary arteries,markedly relaxed
same,relaxation of smooth muscle from internal anal sphincter,[4],fully relax
same,relaxation of smooth muscle from urethra,mouse urethra,fully relax
same,relaxation of smooth muscle from pulmonary artery,[5],fully relax
pertussis toxin [PTX],effect on chloroquine-induced reversal of the KCl-induced increase in [Ca2+]i,[1],prevented
same,"chloroquine-induced increase in global [Ca2+]i, % of control",[1],21.1±8.6%
MPS-phosducin-like protein C terminus [Anti-βγ],effect on chloroquine-induced reversal of the KCl-induced increase in [Ca2+]i,[1],prevented
same,"chloroquine-induced increase in global [Ca2+]i, % of control",[1],18.4±4.8%
[Cl-].[K+] [KCl],KCl-induced increase in ΔF/F0,"[1]; KCl 60 mM, without diltiazem, n=9",122±19%
"CC(=O)OC(C)C[N+](C)(C)C (stereo not shown) [Mch, methacholine]",increase in fluo-3 fluorescence (ΔF/F0),[1]; Mch 100 μM,162±26%
same,contraction (tension) of mouse airways at rest,"[2]; 1 mM chloro, 100 μM Mch",robust contraction
same,"tension generated in Ca2+ free medium, % of that in the presence of extracellular Ca2+",[2]; Ca2+ free medium,less than 20%
same,contraction (force) of mouse airways at rest,"[2]; chloroquine 10 μM-1 mM, Mch 0.1-10 μM",induced contraction markedly
same,cell shortening,Mouse ASM cells,49±8%
"C[C@H](CCC(=O)O)[C@H]1CC[C@H]2[C@@H]3[C@H](O)C[C@@H]4C[C@H](O)CC[C@]4(C)[C@H]3CC[C@]12C [CDCA, chenodeoxycholic acid]",relaxation of smooth muscle from airways,[2],fully relax
same,relaxation of smooth muscle from airways,[3],fully relax
same,relaxation of smooth muscle from pulmonary artery,human pulmonary arteries,fully relax
same,effect on spontaneous tone,[4],reversed totally
same,relaxation of smooth muscle from internal anal sphincter,[4],fully relax
same,relaxation of smooth muscle from urethra,mouse urethra,fully relax
same,effect on 10 μM methacholine-induced contraction,"mouse urethra; pretreatment, CDCA 100 μM",inhibited
same,effect on 60 mM KCl-induced contraction,mouse urethra; [7],blocked
same,effect on alpha1-agonist phenylephrine-induced contraction,mouse urethra; [7],inhibited
same,effect on the increase in [Ca2+]i induced by 60 mM KCl,[6],reversibly inhibited
same,relaxation of smooth muscle from pulmonary artery,[5],fully relax
CC[N+](CC)(CC(=O)Nc1c(C)cccc1C)Cc1ccccc1 [denatonium],reversal (relaxation) of KCl-induced tension,[2]; mouse airways,fully reversed; also recorded: relaxed
same,reversal (relaxation) of KCl-induced tension,[3]; human airways,fully reversed
same,relaxation of human pulmonary arteries,human pulmonary arteries,failed to exert any effect
same,effect on spontaneous tone,[4],enhanced
same,effect on the increase in [Ca2+]i induced by 60 mM KCl,[6],did not affect
same,relaxation of ASM at fixed [Ca2+]i,mouse airway strips,failed to relax

# — patent publication US20150202212A1, “METHODS FOR IDENTIFYING AGENTS FOR TREATING SMOOTH MUSCLE DISORDERS AND COMPOSITIONS THEREOF” (University of Massachusetts Medical School, priority 2012, published 2015)
